Test results from US20090275499A1, “NONSTRUCTURAL PROTEIN NS1 AS A NOVEL THERAPEUTIC TARGET AGAINST FLAVIVIRUSES” (priority 2008, published 2009).
“Also recorded” adds a separate entry of the source.

Experiments:
DENV sNS1 secretion [1] = tested on: DENV sNS1 secretion
Description: Vero cells were infected with DENV-1 at an MOI of 1 for 2 h at 37° C. An uninfected control was included. At seven hours post infection, cells were either mock-treated or treated with D-threo-1-phenyl-2-palmitoylamino-3-pyrrolidino-1-propanol (P4; Calbiochem, San Diego, Calif.) at 2 or 5 μM, combined or not with 1 mM DMJ (Calbiochem, San Diego, Calif.). At 24 hours post infection, cells were washed and incubated for 1 h in methionine/cysteine-free DMEM before metabolically labeling proteins for 4 h in methionine/cysteine-free DMEM supplemented with a mix of ^35S-labeled methionine/cysteine. The NS1 protein was then immunoprecipitated from cell lysates prepared in 25 mM Tris-HCl pH 7.6, 150 mM NaCl, 1% NP-40, 1% sodium deoxycholate, 0.1% SDS, or from the supernatant, with anti-NS1 MAb 13A1 (kindly provided by Dr. Robert Putnak). Immunoprecipitated proteins were separated by SDS-PAGE and detected on an X-ray film.

DENV sNS1 secretion [2] = conditions: DENV-infected Vero cells; Flamand et al., 1999; cited from earlier work
Vero cells = conditions: 5 μM P4, Vero cells
DENV sNS1 protein = assay: Inhibition of DENV sNS1-mediated endothelial cell activation (E-selectin cell-based ELISA in HUVEC); design: species or system Dengue virus (DENV-1)
Description: Activation of endothelial cells by the DENV sNS1 protein has been monitored by the production of adhesion molecule E-selectine, as previously described (Kayal et al., 1999). Briefly, HUVEC cell monolayers were incubated with various concentrations of the purified sNS1 protein for different periods of time. Cells were washed once with warm M199 medium supplemented with 20% FCS and twice with serum-free M199 before fixation for 10 min in ice-cold PBS containing 4% paraformaldehyde. Cells were then rinsed with PBS and treated with a 10% bovine serum albumin (BSA) solution in PBS to reduce non-specific binding of antibodies. Plates were then sequentially incubated for 2 h at room temperature (RT) with primary anti-E-selectin monoclonal antibody (BBA2, R&D Systems, Minneapolis, Minn.) at a dilution of 1:2000 in PBS containing 5% BSA (PBS/BSA), and a secondary peroxidase-conjugated rabbit anti-mouse IgG (Sigma, St. Louis, Mo.) at a dilution of 1:4000 in PBS/BSA. After extensive washes in PBS/BSA and PBS alone, bound antibodies were detected using the TMB Microwell peroxidase substrate system (KPL). The reaction was stopped after 3-5 min by addition of 2.5 N sulfuric acid and the absorbance values were read at a wavelength of 450 nm. […]

[3] = tested on: TNF-α-mediated induction of E-selectin expression; assay: TNF-α-mediated induction of E-selectin expression in HUVEC (cell-based ELISA); design: species or system human; conditions: TNF-α 10 ng/ml pre-incubated with PMB

OC[C@H]1NC[C@@H](O)[C@@H](O)[C@@H]1O [DMJ, deoxymannojirymicin]
sNS1 secretion, combination of P4 and DMJ (DENV sNS1 secretion [1]; P4 2 or 5 μM + DMJ 1 mM, DENV-infected Vero (kidney) cells): additional effect on P4 inhibition
sNS1 secretion, DMJ alone (DENV sNS1 secretion [2]): impairs sNS1 secretion

CCCCCCCCCCCCCCCC(=O)N[C@H](CN1CCCC1)[C@H](O)c1ccccc1 [P4, D-threo-1-phenyl-2-palmitoylamino-3-pyrrolidino-1-propanol]
secretion of sNS1 (DENV sNS1 secretion [1]; P4 alone, DENV-infected Vero cells, MOI 1, effect stated at 5 μM P4): significantly reduced; also recorded: interferes with sNS1 secretion
cell viability (Vero cells): without compromising cell viability

polymyxin B [PMB]
expression of E-selectin in response to the sNS1 protein (DENV sNS1 protein; HUVEC pulse treated with sNS1 (10 μg/ml) pre-incubated with PMB 2 and 10 μg/ml, 15 min-6 h, fixed at 6 h): repressive effect
sNS1-induced HUVEC (endothelial cell) activation (DENV sNS1 protein; no detectable LPS in purified sNS1 preparations): very efficiently block endothelial cell activation by sNS1; also recorded: abrogated the ability of DENV sNS1 to activate HUVEC; also recorded: blocks sNS1-induced HUVEC activation
TNF-α-mediated induction of E-selectin expression [3]: did not show any effect
